# Results published in the supplement of paper PMC10307832.
# Compound: CCN(CC)CCNC(=O)c1c(C)[nH]c(/C=C2\C(=O)Nc3ccc(F)cc32)c1C [Sunitinib]
# Experiment: relative viability (nuclei count vs DMSO), 5 days (fraction); higher = more cells survive
# Method in brief: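 Five library-drug doses, separated by factors of √10, were pinned into 1536-well plates holding lung cancer cell lines after an overnight stay at 37 °C. Cells were fixed, permeabilised and Hoechst-stained in one step after 5 days without medium change, then imaged at 4×. Viability compares treated-well with vehicle-well nuclei, counted in MetaXpress, as a median across plates. Passing plates had control CV below 25% and at least one doubling.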
Cell Line,relative viability (0.02 µM),relative viability (0.06325 µM),relative viability (0.2 µM),relative viability (0.6325 µM),relative viability (2 µM)
COR-L23,0.951,1.08,1.15,1.2,1.1
LK-2,0.936,1.02,1.22,0.905,1.01
SK-LU-1,0.972,1.19,1.1,1.13,0.959
NCI-H1651,0.938,1.1,–,0.996,1.03
NCI-H2126,0.946,1.06,1.04,1.04,1.03
NCI-H596,0.952,1.15,–,0.998,0.913
NCI-H1734,0.916,1.11,1.04,1.05,0.981
NCI-H1648,0.767,–,1.15,1.13,1.17
NCI-H23,0.849,1.15,1.07,1.17,0.938
LXF-289,0.949,0.986,1.04,1.02,1.01
HCC-44,–,1.04,1.04,1.01,1.04
EMC-BAC-2,0.935,1.11,1.18,1.01,1.07
NCI-H522,0.927,1.12,0.996,0.962,0.999
NCI-H1975,0.911,–,1.06,0.963,0.855
PC-14,1.01,1.01,1.13,1.02,0.898
LCLC-103H,0.905,1.07,1.12,0.903,1.03
NCI-H1944,0.914,1.09,1.15,1.05,1.1
HOP-62,0.95,1.07,1.13,1.1,1.06
HCC-827,1.01,1.06,1.05,1.05,1.04
NCI-H2228,1.02,1.21,1.07,0.973,0.962
UMC-11,0.872,1.11,1.01,0.995,0.937
NCI-H2342,0.96,1.09,1.03,1.01,1.11
ABC-1,1.03,1.23,1.06,1.02,1.01
HARA,0.966,1.16,1.03,0.987,–
HCC-78,0.984,0.947,0.994,0.899,1
NCI-H1792,0.802,1.11,1.18,0.924,1.02

Cell Line,relative viability (0.02 µM),relative viability (0.06325 µM),relative viability (0.2 µM),relative viability (0.6325 µM),relative viability (2 µM)
NCI-H2405,1.01,1.06,1.05,1.07,1.01
BEN,0.85,0.97,0.988,0.973,–
Calu-6,0.954,1.04,1.09,1.06,1.07
RERF-LC-KJ,0.956,1.06,1.08,0.992,–
NCI-H2085,0.999,1.04,1.01,1.03,1.04
NCI-H1563,0.955,1.04,0.969,0.939,0.967
NCI-H661,0.977,–,1,1.05,1.03
201T,0.938,0.999,1.02,0.989,0.987
SK-MES-1,0.931,1.03,1.09,1.11,0.988
EBC-1,0.965,–,1.12,1.09,1.01
NCI-H1666,1.02,1.07,1.1,1.05,–
LU99A,0.84,1.1,1.04,0.938,0.901
LC-2-ad,0.945,1.01,1.09,1,0.781
NCI-H2009,0.957,1.07,1.07,1.11,–
NCI-H520,0.926,1.08,1.07,0.979,0.912
EKVX,0.974,1.01,1.14,1.12,1
NCI-H1355,0.962,1.07,1.12,1.02,1.05
SW 1573,0.947,1.17,1.26,1.11,0.905
NCI-H838,0.932,1.06,1.03,0.952,0.782
NCI-H1915,0.943,1.05,1.02,1.03,1.07
NCI-H647,0.991,1.14,1.03,0.989,0.956
PC-3 [JPC-3],1.12,1.05,0.981,1.02,1.02
NCI-H1793,–,0.974,–,0.964,0.831
NCI-H1993,0.963,0.992,1.08,0.915,0.98
ChaGo-K-1,0.987,1.01,1.04,1.06,1.04
NCI-H1437,1.03,1.03,–,0.996,1.09

Cell Line,relative viability (0.02 µM),relative viability (0.06325 µM),relative viability (0.2 µM),relative viability (0.6325 µM),relative viability (2 µM)
NCI-H441,0.863,–,1.17,1.11,1.12
A549,0.945,1.1,1.23,1.06,0.972
NCI-H322M,0.866,1.02,1,0.936,0.892
LOU-NH91,1.01,0.969,1,0.98,0.941
EPLC-272H,0.841,1.07,0.939,0.98,0.795
NCI-H2023,0.874,1.09,1.07,1.03,0.967
CAL-12T,0.908,1.03,1.11,1.13,1.03
NCI-H1755,–,–,1.04,1.03,1.05
NCI-H3122,0.986,1.05,0.996,1.01,–
NCI-H727,0.942,1.17,1.23,1.09,0.859
COR-L 105,0.876,1.05,0.952,–,0.889
H3255,0.94,0.902,–,1.02,0.988
LCLC-97TM1,0.968,1.14,1.01,1.02,1.09
NCI-H460,–,–,1.05,0.995,1.08
HCC-366,0.963,1.05,1.07,–,0.965
A-427,0.981,–,1.05,1.07,1.06
NCI-H2170,0.909,0.993,1.05,0.953,0.959
HCC-15,0.988,1.11,–,1.04,1
NCI-H1650,–,1.05,0.964,0.942,0.903
NCI-H2347,1.01,1.08,1.1,1.04,1.18
NCI-H1299,0.99,1.07,1.04,1.04,1.08
NCI-H650,0.906,1.1,1.01,1.03,1.08
NCI-H1395,1.02,1.01,0.925,0.991,0.945
NCI-H358,0.875,0.97,1.1,0.897,0.67
NCI-H2087,1.16,1.25,1.13,1.1,1.11
